Test results reported in patent US9387195B2, “Methods for treating diseases using isoindoline compounds” (Celgene Corporation, priority 2011, dated 2016).

Tests used:
[1] = test system: IFN-α production; assay: IFN-α ELISA, CpG-A stimulated human PBMCs or pDCs (Example 15); assay type: cell-based
Description: (§1) The IFN-α and TNF-α levels were measured by enzyme-linked immunoabsorbant assay (ELISA) obtained from R&D System, Minneapolis, Minn., known as Human IFN-alpha ELISA Kit (PBL Interferon Source, Cat #41100-1) and Human TNF-alpha Quantikine ELISA Kit (ThermoScientific, Cat # EH3TNFA5) respectively. […] Compounds were diluted with DMSO (PBMCs) or media (pDCs) from a 4 mM stock of each compound to obtain different concentrations. Human PBMCs or pDCs were pretreated with different concentrations of compounds for an hour prior stimulation. Cells were then stimulated with 1 μM (PBMCs) or 10 μM (PDCs) CpG-A ODN 2216 for 18 hours. The samples with Compound (II) (0.25 μM, 0.5 μM and 1 μM) are labeled as Examples B1-B3; the samples with Compound (I) (0.25 μM, 0.5 μM and 1 μM) are labeled as Examples B4-B6; the samples with CC-930 (1.0 μM, 2.0 μM and 3.0 μM) are labeled as Examples B7-B9; and the samples with chloroquine (0.5 μM, 1.0 μM and 2.0 μM) are labeled as Examples B10-B12. Keratinocytes of samples (Examples B1-B12) cultured in the presence of pDCs were stimulated with CpG-A oligonucleotide. Two control experiments were done. The first control experiment (Control BB1) was done with similar procedures mentioned-above but without CpG-A stimulation and without the addition of inhibitors. The second control experiment (Control BB2) was done with similar procedures mentioned-above but without the addition of inhibitors. Supernatant was collected after 18 hours. IFN-α and TNF-α levels were assayed by ELISA according to manufacturer's instructions.

[2] = test system: TNF-α production; assay: TNF-α ELISA, CpG-A stimulated human PBMCs or pDCs (Example 15); assay type: cell-based
Description: as §1

[3] = test system: keratinocyte MxA; assay: pDC-keratinocyte co-culture with CpG-A stimulation, keratinocyte MxA level (Example 16); assay type: cell-based, human; settings: for decrease in the keratinocyte MxA level: relative to Control BB2
Description: (§2) The Human pDC/HEKa Coculture involves stimulation with CpG-A oligodeoxynucleotide. CpG-A-stimulation would induce pDCs to secrete interferon-alpha (IFN-α) which in turn elicits increased expression of MxA protein from keratinocytes. HEKa were plated in 6-well plates at density of 1×10^5 cells/well and incubated overnight in a defined keratinocyte medium. The medium was removed in the next day and then 1.8×10^5 pDC cells, in defined pDC medium, were overlaid on the HEKa cells. Compound (II) was added to the medium to obtain final concentrations of 0.25 μM, 0.5 μM and 1 μM. One hour after the addition of Compound (II), CpG-A was added to each of the concentrations and then incubated overnight. Same samples from Example 15 were used here.
(§3) The cells were fixed and immunostained the co-cultures with antibodies to keratinocyte myxovirus resistance protein A (MxA) and Cytokeratin as follows using the ThermoScientific Cellomics High Content Screening (HCS) Readers using vHCS Scan Software.
(§4) Eighteen hours after the addition of Compound (II), cocultures were fixed for 30 minutes with BD fixation/permeabilization buffer, washed, and blocked with 2% normal goat serum/bovine serum albumin solution for an hour. Cocultures were then incubated overnight with primary antibodies to MxA and Cytokeratin. Cells were washed and incubated for an hour with Alexa anti-goat and anti-rabbit fluorescein (IgG1) or TRITC-conjugated (IgG) secondary antibodies. […] Cocultures were washed and incubated in 1X phosphate buffered saline (PBS) and plates scanned using Thermo Scientific ArrayScan VTI HCS Reader, a modular High Content Screening instrument designed for high-capacity automated fluorescence imaging and quantitative analysis of fixed and live cells. The output was analyzed using Cellomics Compartmental Analysis algorithm to quantitate fluorescence levels in the green and red channels. […] Mean fluorescence intensity levels of MxA and Cytokeratin of the samples were expressed as percentage of mean fluorescence intensity levels of MxA and cytokeratin of Control BB2. […]

[4] = test system: keratinocyte cytokeratin; assay: pDC-keratinocyte co-culture with CpG-A stimulation, cytokeratin level (Example 16); assay type: cell-based, human; settings: relative to Control BB2
Description: as §2, §3, §4

[5] = test system: IFN-α production; assay: IFN-α ELISA in CpG-A stimulated hPBMC (Example 18); assay type: cell-based, human; settings: 1 μM CpG-A, 18 hours
Description: Human PBMCs (1×10^5 cells) were plated in 96-well plates (PBMCs) in RPMI media containing 10% FBS. Compounds were diluted with DMSO from a 4 mM stock of each compound to obtain different concentrations. Human PBMCs were pretreated with different concentrations of compounds for an hour prior stimulation. Cells were then stimulated with CpG-A ODN 2216 (1 μM) for 18 hours. […] The samples (Control E1 and Examples E2-E20) contained 1 μM CpG-A. Supernatant was collected after 18 hours. The IFN-α levels of samples were measured by the IFN-α ELISA obtained from PBL Interferon Source, Piscataway, N.J., known as Human IFN-alpha ELISA Kit. IFN-α levels of samples were assayed by the ELISA according to manufacturer's instructions. Inhibition of the production of IFN-α by individual compounds were determined in the CpG-A stimulated hPBMC cultures.

[6] = test system: keratinocyte MxA; assay: Human pDC/HEKa coculture with CpG-A stimulation, keratinocyte MxA level (Example 14); assay type: cell-based; settings: relative to CpG-A stimulated Example A1
Description: as §2, with “CpG-A oligodeoxynucleotide 2216. The CpG-A stimulation” for “CpG-A oligodeoxynucleotide. CpG-A-stimulation”, “0.5 μM, 1” for “0.5”, “and 2” for “and 1”, “of these” for “of the”, “overnight.” for “overnight. Same samples from Example 15 were used here.”
as §3
Eighteen hours after the addition of Compound (II), cocultures were fixed for 30 minutes with BD fixation/permeabilization buffer, washed, and blocked with 2% normal goat serum/bovine serum albumin solution for an hour. Cocultures were then incubated overnight with primary antibodies to MxA and Cytokeratin. Cells were washed and incubated for an hour with Alexa anti-goat and anti-rabbit fluorescein (IgG1) or TRITC-conjugated (IgG) secondary antibodies. Nuclei were stained with DAPI or 4′,6-diamidino-2-phenylindole. Cocultures were washed and incubated in 1X phosphate buffered saline (PBS) and plates scanned using Thermo Scientific ArrayScan VTI HCS Reader, a modular High Content Screening instrument designed for high-capacity automated fluorescence imaging and quantitative analysis of fixed and live cells. The output was analyzed using Cellomics Compartmental Analysis algorithm to quantitate fluorescence levels in the green and red channels. Data was exported to Microsoft Excel worksheets. Mean fluorescence intensity levels of MxA and Cytokeratin of the samples were expressed as percentage of mean fluorescence intensity levels of MxA and cytokeratin of Example A1. Histograms were generated and statistical analysis was performed using GraphPad Prism v4.0 (GraphPad Software, Inc., San Diego, Calif.).
FIGS. 1-2 show the levels of keratinocyte MxA and cytokeratin of the samples averaged from four independent experiments relative to the keratinocyte MxA and cytokeratin levels of Example A1 with pDCs derived from separate donors. […]

[7] = test system: cytokeratin; assay: Human pDC/HEKa coculture with CpG-A stimulation, cytokeratin level (Example 14); assay type: cell-based; settings: 0.25-2 μM; relative to Example A1
Description: The Human pDC/HEKa Coculture involves stimulation with CpG-A oligodeoxynucleotide 2216. The CpG-A stimulation would induce pDCs to secrete interferon-alpha (IFN-α) which in turn elicits increased expression of MxA protein from keratinocytes. HEKa were plated in 6-well plates at density of 1×10^5 cells/well and incubated overnight in a defined keratinocyte medium. The medium was removed in the next day and then 1.8×10^5 pDC cells, in defined pDC medium, were overlaid on the HEKa cells. Compound (II) was added to the medium to obtain final concentrations of 0.25 μM, 0.5 μM, 1 μM and 2 μM. […]
as §3
Eighteen hours after the addition of Compound (II), cocultures were fixed for 30 minutes with BD fixation/permeabilization buffer, washed, and blocked with 2% normal goat serum/bovine serum albumin solution for an hour. […] Cocultures were washed and incubated in 1X phosphate buffered saline (PBS) and plates scanned using Thermo Scientific ArrayScan VTI HCS Reader, a modular High Content Screening instrument designed for high-capacity automated fluorescence imaging and quantitative analysis of fixed and live cells. […]

[8] = 0.25, 0.5 and 1 μM, relative to CpG-A stimulation (Control BB2), P<0.0001
[9] = 0.25, 0.5 and 1 μM, relative to CpG-A stimulation (Control BB2)
[10] = 1.0, 2.0 and 3.0 μM (Examples B7-B9), relative to Control BB2
[11] = Homo sapiens, PBMC, read-out: inhibition of the production of IFN-α

## CCOc1cc(C(CS(C)(=O)=O)N2C(=O)c3cccc(NC(C)=O)c3C2=O)ccc1OC (single isomer, unassigned; (+)) [Compound (I), (+)-2-[1-(3-ethoxy-4-methoxyphenyl)-2-methylsulfonylethyl]-4-acetylaminoisoindoline-1,3-dione]
[1]; [8]
  inhibition of the production of IFN-α: inhibited
[2]; [9]
  inhibition of the production of TNF-α: inhibited
[3]; 0.25, 0.5 and 1 μM (Examples B4-B6)
  ability to inhibit the production of the keratinocyte MxA, among the compounds tested: greatest ability to inhibit
[4]
  effect on the keratinocyte cytokeratin: no significant effect
[5]; 0.5 μM, versus Control E1
  inhibition of the production of IFN-α: significant inhibition
[5]; 5 μM, versus Control E1
  inhibition of the production of IFN-α: significant inhibition

## O[C@H]1CC[C@H](Nc2ncc3nc(Nc4c(F)cc(F)cc4F)n([C@H]4CCOC4)c3n2)CC1 [CC-930, reference compound]
[1]; [10]
  inhibition of the production of IFN-α: approximately 25%
[2]; [10]
  inhibition of the production of TNF-α: approximately 25%
[3]; 1 μM, P<0.05
  decrease in the keratinocyte MxA level: 32%
[4]
  effect on the keratinocyte cytokeratin: no significant effect
[5]; 10 μM, versus Control E1
  inhibition of the production of IFN-α: inhibited

## CCN(CC)CCCC(C)Nc1ccnc2cc(Cl)ccc12 (stereo not drawn) [Chloroquine, chloroquine]
[1]; [11]
  inhibition at 1 µM: ~75%
  inhibition at 2 µM: ~75%
[2]; Homo sapiens, PBMC, read-out: inhibition of the production of TNF-α
  inhibition at 2 µM: ~50%
[5]; 5 μM, versus Control E1
  inhibition of the production of IFN-α: induced inhibition

## CCOc1cc([C@@H](CS(C)(=O)=O)N2Cc3cccc(NC(=O)C4CC4)c3C2=O)ccc1OC [Compound (II), Cyclopropyl{2-[(1S)-1-(3-ethoxy-4-methoxyphenyl)-2-(methylsulfonyl)ethyl]-3-oxoisoindolin-4-yl}carboxamide]
[6]; 0.25 μM
  decrease in the keratinocyte MxA protein levels: 19%
[6]; 0.5 μM
  decrease in the keratinocyte MxA protein levels: 39%
[6]; 1 μM
  decrease in keratinocyte MxA levels: 29%
[6]; 2 μM
  decrease in keratinocyte MxA levels: 40%
[7]
  effect on the cytokeratin levels on the keratinocytes: no effect
[1]; [8]
  inhibition of the production of IFN-α: inhibited
[2]; [9]
  inhibition of the production of TNF-α: inhibited
[3]; 0.25, 0.5 and 1 μM (Examples B1-B3)
  decrease in the keratinocyte MxA level: 13-15%
[4]
  effect on the keratinocyte cytokeratin: no significant effect
[5]; 0.5 μM, versus Control E1
  inhibition of the production of IFN-α: significant inhibition
[5]; 5 μM, versus Control E1
  inhibition of the production of IFN-α: significant inhibition

## Nc1cccc2c1CN(C1CCC(=O)NC1=O)C2=O (stereo not drawn) [Lenalidomide, lenalidomide]
[5]; 10 μM, versus Control E1
  inhibition of the production of IFN-α: did not affect

## CCN(CC)CCCC(C)Nc1c2ccc(Cl)cc2nc2ccc(OC)cc12 (stereo not drawn) [Quinacrine, quinacrine]
[5]; 0.5 and 5 μM (Examples E19-E20)
  inhibition of the production of IFN-α: inhibited

## CCN(CCO)CCCC(C)Nc1ccnc2cc(Cl)ccc12 (stereo not drawn) [hydroxychloroquine]
[5]; 5 μM, versus Control E1
  inhibition of the production of IFN-α: induced inhibition

## O=C1CCC(N2C(=O)c3ccccc3C2=O)C(=O)N1 (stereo not drawn) [thalidomide]
[5]; 10 μM, versus Control E1
  inhibition of the production of IFN-α: did not affect
